What all share (assay type): cell-based, HIV-1
One assay has as its system HIV strain K103N + Y181C. The assay can be described thus: Cellular anti-HIV assay in MT4 LTR-EGFP cells, mutant K103N + Y181C. Conditions: Human immunodeficiency virus 1, 72 h, read-out: K103N + Y181C pEC50 (converted). How it is done: (§1) Because of the increasing emergence of drug resistant HIV strains, the present compounds were tested for their potency against clinically isolated HIV strains harbouring several mutations. These mutations are associated with resistance to reverse transcriptase inhibitors and result in viruses that show various degrees of phenotypic cross-resistance to the currently commercially available drugs such as for instance AZT and delavirdine.
(§2) The antiviral activity of the compound of the present invention has been evaluated in the presence of wild type HIV and HIV mutants bearing mutations at the reverse transcriptase gene. The activity of the compounds is evaluated using a cellular assay which was performed according to the following procedure.
(§3) The human T-cell line MT4 is engineered with Green Fluorescent Protein (GFP) and an HIV-specific promoter, HIV-1 long terminal repeat (LTR). This cell line is designated MT4 LTR-EGFP, and can be used for the in vitro evaluation of anti-HIV activity of investigational compounds. In HIV-1 infected cells, the Tat protein is produced which upregulates the LTR promotor and finally leads to stimulation of the GFP reporter production, allowing to measure ongoing HIV-infection fluorometrically. Analogously, MT4 cells are engineered with GFP and the constitutional cytomegalovirus (CMV) promotor. This cell line is designated MT4 CMV-EGFP, and can be used for the in vitro evaluation of cytotoxicity of investigational compounds. In this cell line, GFP levels are comparably to those of infected MT4 LTR-EGFP cells. Cytotoxic investigational compounds reduce GFP levels of mock-infected MT4 CMV-EGFP cells.
(§4) Effective concentration values such as 50% effective concentration (EC50) can be determined and are usually expressed in μM. An EC50 value is defined as the concentration of test compound that reduces the fluorescence of HIV-infected cells by 50%. The 50% cytotoxic concentration (CC50 in μM) is defined as the concentration of test compound that reduces fluorescence of the mock-infected cells by 50%. The ratio of CC50 to EC50 is defined as the selectivity index (SI) and is an indication of the selectivity of the anti-HIV activity of the inhibitor. The ultimate monitoring of HIV-1 infection and cytotoxicity is done using a scanning microscope. Image analysis allows very sensitive detection of viral infection. Measurements are done before cell necrosis, which usually takes place about five days after infection, in particular measurements are performed three days after infection.
(§5) The columns IIIB, L100I, etc. in the table list the pEC50 values against various strains IIIB, L100I, etc.

Assay [1] deals with HIV strain IIIB (wild type). The assay can be described thus: Cellular anti-HIV assay in MT4 LTR-EGFP cells, strain IIIB (wild type); selectivity index versus cytotoxicity in mock-infected MT4 CMV-EGFP cells. Conditions: for EC50: Human immunodeficiency virus 1, 72 h, wild type HIV strain IIIB, MT4 LTR-EGFP cells, fluorescence, three days after infection, read-out: IIIB pEC50 (converted); for IIIB pSi: selectivity index = ratio of CC50 (mock-infected MT4 CMV-EGFP cells) to EC50 (IIIB), given as p value. How it is done: as §2, §3, §4, §5
Strain IIIB is wild type HIV strain

The next assay has as its system HIV strain MDR. Kind of assay: Cellular anti-HIV assay in MT4 LTR-EGFP cells, MDR strain. Conditions: Human immunodeficiency virus 1, read-out: MDR pEC50 (converted). The method, then:
as §1, §2, §3, §4, §5
MDR refers to a strain that contains mutations L100I, K103N, Y181C, E138G, V1791, L2214F, V278V/I and A327A/V in HIV reverse transcriptase.

The next assay deals with HIV strain L100I + K103N. Kind of assay: Cellular anti-HIV assay in MT4 LTR-EGFP cells, mutant L100I + K103N. The settings on record: Human immunodeficiency virus 1, 72 h, read-out: L100I + K103N pEC50 (converted). How it is done:
as §1, §2, §3, §4, §5

The test system of a further assay is HIV strain L100I. The assay can be described thus: Cellular anti-HIV assay in MT4 LTR-EGFP cells, mutant L100I. Conditions: Human immunodeficiency virus 1, read-out: L100I pEC50 (converted). The method, then: as §1, §2, §3, §4, §5
For the next assay, the system named is HIV strain Y188L. The assay can be described thus: Cellular anti-HIV assay in MT4 LTR-EGFP cells, mutant Y188L. Conditions: Human immunodeficiency virus 1, read-out: Y188L pEC50 (converted). The method, then:
as §1, §2, §3, §4, §5

The next assay relates to HIV strain Y181C. The assay can be described thus: Cellular anti-HIV assay in MT4 LTR-EGFP cells, mutant Y181C. Conditions: Human immunodeficiency virus 1, read-out: Y181C pEC50 (converted). The method, then:
as §1, §2, §3, §4, §5

The test system of another assay is HIV strain K103N. Kind of assay: Cellular anti-HIV assay in MT4 LTR-EGFP cells, mutant K103N. The settings on record: Human immunodeficiency virus 1, read-out: K103N pEC50 (converted). The method, then: as §1, §2, §3, §4, §5

Consider `CONC(=O)c1cnc(Nc2ccc(C#N)cc2)nc1Nc1c(C)cc(/C=C/C#N)cc1C` [Compound 23], for which the EC50 was 7.94 nM with HIV strain K103N + Y181C; 3.98 nM in assay [1]; 794 nM in the assay on HIV strain MDR; 12.6 nM in the assay on HIV strain L100I + K103N; 5.01 nM with HIV strain L100I; 15.8 nM in the assay on HIV strain Y188L. Besides, in the assay with HIV strain Y181C, the EC50 was 15.8 nM. In addition, the “IIIB pSi” value in assay [1] is recorded as above 3.80.

On to `Cc1ccc(CNC(=O)c2cnc(Nc3ccc(C#N)cc3)nc2Nc2c(C)cc(/C=C/C#N)cc2C)o1` [Compound 24], for which the EC50 was 50.1 nM in the assay on HIV strain K103N + Y181C; 15.8 nM in assay [1]; 5010 nM with HIV strain MDR; 79.4 nM in the assay on HIV strain L100I + K103N; 25.1 nM in the assay with HIV strain L100I; 79.4 nM with HIV strain Y188L. Besides, in the assay with HIV strain Y181C, the EC50 is 25.1 nM. Further, the “IIIB pSi” value in assay [1] worked out at 3.00.

In the case of `COc1ccccc1CNC(=O)c1cnc(Nc2ccc(C#N)cc2)nc1Nc1c(C)cc(/C=C/C#N)cc1C` [Compound 27], the EC50 in the assay with HIV strain K103N + Y181C was 39.8 nM; in assay [1] it was 6.31 nM; in the assay with HIV strain MDR, 3160 nM; in the assay with HIV strain L100I it was 50.1 nM; in the assay on HIV strain K103N, 7.94 nM; in the assay on HIV strain Y188L it was 79.4 nM. Moreover, the EC50 in the assay with HIV strain Y181C was 39.8 nM. In assay [1], the “IIIB pSi” value was above 3.60.

On to `Cc1cccc(CNC(=O)c2cnc(Nc3ccc(C#N)cc3)nc2Nc2c(C)cc(/C=C/C#N)cc2C)c1` [Compound 28], for which the EC50 with HIV strain K103N + Y181C is 50.1 nM; in assay [1] it was 15.8 nM; in the assay on HIV strain MDR, 7940 nM; in the assay with HIV strain L100I, 50.1 nM; in the assay with HIV strain K103N, 15.8 nM; in the assay with HIV strain Y188L, 126 nM. Also, the EC50 in the assay on HIV strain Y181C was 79.4 nM. Also, the “IIIB pSi” value in assay [1] worked out at 3.10.

For `Cc1cc(/C=C/C#N)cc(C)c1Nc1nc(Nc2ccc(C#N)cc2)ncc1C(=O)NCCc1ccccc1` [Compound 31], the EC50 in the assay on HIV strain K103N + Y181C is 50.1 nM; in assay [1] it was 15.8 nM; with HIV strain MDR, 10000 nM; with HIV strain L100I, 31.6 nM; with HIV strain K103N it was 15.8 nM; in the assay on HIV strain Y188L, 79.4 nM. In the assay with HIV strain Y181C, the EC50 was 63.1 nM. Moreover, the “IIIB pSi” value in assay [1] stood at 3.10.

`Cc1cc(/C=C/C#N)cc(C)c1Nc1nc(Nc2ccc(C#N)cc2)ncc1C(=O)NCCc1cccc(F)c1` [Compound 32]: the EC50 in the assay on HIV strain K103N + Y181C is 79.4 nM; in assay [1] it was 12.6 nM; with HIV strain MDR it was 10000 nM; in the assay with HIV strain L100I, 39.8 nM; with HIV strain K103N it was 15.8 nM; in the assay with HIV strain Y188L it was 100 nM. In the assay with HIV strain Y181C, the EC50 is 79.4 nM. Further, in assay [1], the “IIIB pSi” value came out at 3.10.

As for `CCOC(=O)CCCNC(=O)c1cnc(Nc2ccc(C#N)cc2)nc1Nc1c(C)cc(/C=C/C#N)cc1C` [Compound 45], the EC50 in the assay with HIV strain K103N + Y181C is 15.8 nM; in assay [1], 2.51 nM; with HIV strain MDR, 1000 nM; in the assay on HIV strain L100I, 6.31 nM; with HIV strain K103N, 2 nM; in the assay with HIV strain Y188L, 20 nM. Further, the “IIIB pSi” value in assay [1] is above 4.00.

Regarding `Cc1cc(/C=C/C#N)cc(C)c1Nc1nc(Nc2ccc(C#N)cc2)ncc1C(=O)NCCC#N` [Compound 46], the EC50 was 39.8 nM in the assay with HIV strain K103N + Y181C; 7.94 nM in assay [1]; 158 nM in the assay with HIV strain MDR; 15.8 nM with HIV strain L100I + K103N; 7.94 nM in the assay on HIV strain L100I; 3.98 nM with HIV strain K103N. The EC50 in the assay with HIV strain Y188L is 31.6 nM. The “IIIB pSi” value in assay [1] is reported as above 3.50.

With `Cc1cc(/C=C/C#N)cc(C)c1Oc1nc(Nc2ccc(C#N)cc2)ncc1C(=O)NCc1ccncc1` [Compound 58], the EC50 in the assay on HIV strain K103N + Y181C was 100 nM; in assay [1], 2 nM; in the assay with HIV strain MDR it was 3160 nM; in the assay on HIV strain L100I + K103N, 316 nM; in the assay on HIV strain K103N it was 6.31 nM; with HIV strain Y188L, 158 nM. In assay [1], the “IIIB pSi” value is above 4.10.

Source of the values: patent publication US8933089B2, “HIV inhibiting 5-amido substituted pyrimidines” (Janssen R & D Ireland, priority 2006, dated 2015).
